# Assay: Example 10: tacrolimus tissue, plasma, rectal and GI content pharmacokinetics, oral vs intra-cecal ingestible device
# Set-up: species or system Yorkshire-Cross farm swine
# Conditions: female, Yorkshire-Cross, swine, in vivo, 0.09 mg/kg
# Description: The primary objective of this study was to compare the tissue, plasma, rectal sample, and GI content pharmacokinetics of tacrolimus through oral versus intra-cecal ingestible device delivery in normal Yorkshire-Cross farm swine.
# No further randomization procedure was employed.
# Animals in Group 1 received an ingestible device containing 0.8 mL of vehicle solution (80% alcohol, 20% HCO-60). Animals in Group 2 received orally […] liquid formulation of tacrolimus at 4 mg/0.8 mL per animal (Prograf: 5 mg/mL). Animals in Group 3 received intra-cecally an ingestible device containing tacrolimus at 1 mg in 0.8 mL per ingestible device. […]
# Approximately 200-400 mg of rectal content were collected, if available, with a fecal swab (Copan Diagnostics Nylon Flocked Dry Swabs, 502CS01). The fecal swab was pre-weighed and weighed after collection in the collection tube (Sterile Tube and Cap No Media, PFPM913S), and the sample weight was recorded. […]
# For tissue necropsy, small intestine fluid and cecal fluid were collected separately from all the animals into two separate square plastic bottles, and stored at −20° C. The length and diameter of the cecum and the colon was measured from one animal in each group and recorded for reference. […] All samples were weighed, and the tissue sample weights were recorded. […]
structure (smiles),measurement,value
C=CC[C@@H]1/C=C(\C)C[C@H](C)C[C@H](OC)[C@H]2O[C@@](O)(C(=O)C(=O)N3CCCC[C@H]3C(=O)O[C@H](/C(C)=C/[C@@H]3CC[C@@H](O)[C@H](OC)C3)[C@H](C)[C@@H](O)CC1=O)[C@H](C)C[C@@H]2OC [tacrolimus],concentration at 12 h,4.38 ± 0.516 ng/mL
